According to PubChem BioAssay (NCI):
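Five compound concentrations were applied to cells in 96-well plates for 48 hours; endpoints were derived by simple linear interpolation of the resulting dose-response curve. TGI marks complete inhibition of growth.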

Columns and labels:
Assay in all cases: NCI tumour cell line growth inhibition, 48 h
[1] = test system: M19-MEL melanoma
[2] = test system: SF-295 CNS
[3] = test system: ACHN renal
[4] = test system: EKVX NSCLC
[5] = test system: HOP-92 NSCLC
[6] = test system: HOP-18 NSCLC
[7] = test system: HT29 colon
[8] = test system: HL-60(TB) leukemia
[9] = test system: LXFL 529 NSCLC
[10] = test system: M14 melanoma
[11] = test system: RXF-631 renal
[12] = test system: KM12 colon
[13] = test system: HCC-2998 colon
[14] = test system: MALME-3M melanoma
[15] = test system: CCRF-CEM leukemia
[16] = test system: OVCAR-8 ovarian
[17] = test system: UACC-257 melanoma
[18] = test system: SN12C renal
[19] = test system: SF-539 CNS
[20] = test system: SK-MEL-5 melanoma
[21] = test system: TK-10 renal
[22] = test system: KM20L2 colon
[23] = test system: A498 renal
[24] = test system: SNB-78 CNS
[25] = test system: SK-MEL-28 melanoma
[26] = test system: RXF 393 renal
[27] = test system: IGROV1 ovarian
[28] = test system: A549 NSCLC
[29] = test system: OVCAR-5 ovarian
[30] = test system: NCI-H522 lung
[31] = test system: HOP-62 NSCLC
[32] = test system: COLO 205 colon
[33] = test system: NCI-H460 lung
[34] = test system: SR leukemia
[35] = test system: SK-MEL-2 melanoma
[36] = test system: NCI-H23 lung
[37] = test system: UACC-62 melanoma
[38] = test system: HCT-15 colon
[39] = test system: 786-0 renal
[40] = test system: UO-31 renal
[41] = test system: K-562 leukemia
[42] = test system: MOLT-4 leukemia
[43] = test system: DMS 114 small cell lung
[44] = test system: SNB-19 CNS
[45] = test system: HCT-116 colon
[46] = test system: DLD-1 colon
[47] = test system: SW-620 colon
[48] = test system: U251 CNS
[49] = test system: SF-268 CNS
[50] = test system: CAKI-1 renal
[51] = test system: OVCAR-3 ovarian
[52] = test system: NCI-H226 lung
[53] = test system: RPMI-8226 leukemia
[54] = test system: OVCAR-4 ovarian
[55] = test system: LOX IMVI melanoma
[56] = test system: SNB-75 CNS

COc1ccc(NC(=O)C2C(=O)N(c3ccc(OC)cc3)C(=O)/C2=N\N)cc1 (stereo not drawn)
TGI [1]: > 100 µM | TGI [2]: > 100 µM | TGI [3]: > 100 µM | TGI [4]: > 100 µM | TGI [5]: > 100 µM | TGI [6]: > 100 µM | TGI [7]: > 100 µM | TGI [8]: > 100 µM | TGI [9]: > 100 µM | TGI [10]: > 100 µM | TGI [11]: > 100 µM | TGI [12]: > 100 µM | TGI [13]: > 100 µM | TGI [14]: > 100 µM | TGI [15]: > 100 µM | TGI [16]: > 100 µM | TGI [17]: > 100 µM | TGI [18]: > 100 µM | TGI [19]: > 100 µM | TGI [20]: > 100 µM | TGI [21]: > 100 µM | TGI [22]: > 100 µM | TGI [23]: > 100 µM | TGI [24]: > 100 µM | TGI [25]: > 100 µM | TGI [26]: > 100 µM | TGI [27]: > 100 µM | TGI [28]: > 100 µM | TGI [29]: > 100 µM | TGI [30]: > 100 µM | TGI [31]: > 100 µM | TGI [32]: > 100 µM | TGI [33]: > 100 µM | TGI [34]: > 100 µM | TGI [35]: > 100 µM | TGI [36]: > 100 µM | TGI [37]: > 100 µM | TGI [38]: > 100 µM | TGI [39]: > 100 µM | TGI [40]: > 100 µM | TGI [41]: > 100 µM | TGI [42]: > 100 µM | TGI [43]: > 100 µM | TGI [44]: > 100 µM | TGI [45]: > 100 µM | TGI [46]: > 100 µM | TGI [47]: > 100 µM | TGI [48]: > 100 µM | TGI [49]: > 100 µM

CCOc1cc2c[n+](C)c3c4cc(OC)c(OC)cc4ccc3c2cc1OC
TGI [1]: > 100 µM | TGI [50]: > 100 µM | TGI [2]: > 100 µM | TGI [3]: > 100 µM | TGI [4]: > 100 µM | TGI [5]: > 100 µM | TGI [6]: > 100 µM | TGI [7]: > 100 µM | TGI [8]: > 100 µM | TGI [9]: > 100 µM | TGI [10]: > 100 µM | TGI [11]: 40.1 µM | TGI [12]: > 100 µM | TGI [13]: > 100 µM | TGI [14]: > 100 µM | TGI [51]: > 100 µM | TGI [15]: > 100 µM | TGI [16]: 32.2 µM | TGI [17]: > 100 µM | TGI [18]: > 100 µM | TGI [19]: > 100 µM | TGI [20]: > 100 µM | TGI [21]: > 100 µM | TGI [22]: > 100 µM | TGI [52]: > 100 µM | TGI [24]: > 100 µM | TGI [25]: > 100 µM | TGI [26]: > 100 µM | TGI [53]: > 100 µM | TGI [27]: > 100 µM | TGI [28]: > 100 µM | TGI [54]: > 100 µM | TGI [29]: > 100 µM | TGI [30]: > 100 µM | TGI [31]: > 100 µM | TGI [32]: > 100 µM | TGI [33]: > 100 µM | TGI [55]: > 100 µM | TGI [34]: > 100 µM | TGI [35]: > 100 µM | TGI [36]: > 100 µM | TGI [38]: > 100 µM | TGI [39]: 35.1 µM | TGI [40]: > 100 µM | TGI [41]: > 100 µM | TGI [42]: > 100 µM | TGI [56]: > 100 µM | TGI [43]: > 100 µM | TGI [44]: > 100 µM | TGI [45]: > 100 µM | TGI [46]: > 100 µM | TGI [47]: > 100 µM | TGI [48]: > 100 µM | TGI [49]: > 100 µM
